Assay results taken from ChEMBL document CHEMBL4680112, “Synthesis and Structure-Activity Relationships of Inhibitors That Target the C-Terminal MEEVD on Heat Shock Protein 90” (ACS Med Chem Lett, 2018).
Active and inactive are the calls of the source. No cut-off for these calls is given here. Non-standard residues stand in square brackets, D forms with d. Residues, ends and D or L forms follow the SMILES beside them.

These compounds were tested against T1, Heat shock protein HSP 90-beta (Homo sapiens, UniProt P08238) (assay: Potency index, ratio of Kawakami-peptide IC50 to LB51 IC50 C-terminal HSP90beta (527 to 724 residues) (unknown origin) interaction with CYP40 measured after 30 mins by Alphascreen assay). Details: not given.
T1 sequence (P08238 whole entry, the tested form may be a part): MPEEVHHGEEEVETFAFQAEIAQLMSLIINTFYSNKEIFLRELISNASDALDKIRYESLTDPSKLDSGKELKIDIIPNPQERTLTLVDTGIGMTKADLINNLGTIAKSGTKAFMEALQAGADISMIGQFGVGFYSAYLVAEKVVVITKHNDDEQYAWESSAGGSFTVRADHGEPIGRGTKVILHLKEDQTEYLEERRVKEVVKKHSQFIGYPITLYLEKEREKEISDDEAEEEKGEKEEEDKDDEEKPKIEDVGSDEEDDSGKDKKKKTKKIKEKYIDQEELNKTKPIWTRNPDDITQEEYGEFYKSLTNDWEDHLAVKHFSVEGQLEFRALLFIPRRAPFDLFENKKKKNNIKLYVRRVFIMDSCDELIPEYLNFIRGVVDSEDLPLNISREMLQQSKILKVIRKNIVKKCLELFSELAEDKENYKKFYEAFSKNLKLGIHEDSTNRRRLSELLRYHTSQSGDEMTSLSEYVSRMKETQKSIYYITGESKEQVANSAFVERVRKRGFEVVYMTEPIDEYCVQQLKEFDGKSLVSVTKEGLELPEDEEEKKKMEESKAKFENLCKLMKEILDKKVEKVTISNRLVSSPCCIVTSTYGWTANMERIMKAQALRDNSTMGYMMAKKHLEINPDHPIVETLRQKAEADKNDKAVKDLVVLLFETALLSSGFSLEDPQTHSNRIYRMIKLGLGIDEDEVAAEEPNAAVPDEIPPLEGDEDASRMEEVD
A Ratio IC50 greater than 10 was found for NCCCC[C@@H]1NC(=O)[C@H](Cc2ccccc2)NC(=O)[C@H](Cc2ccc(O)cc2)NC(=O)[C@H](CO)NC(=O)[C@H](CC(N)=O)NC1=O (cyclo(KNSYF)) in this work.

These compounds were tested against T1, Heat shock protein HSP 90-beta (assay: Inhibition of C-terminal HSP90beta (527 to 724 residues) (unknown origin) interaction with CYP40 measured after 30 mins by Alphascreen assay). Details: not given.
An IC50 of 50 µM was found for CC[C@H](C)[C@H](NC(=O)[C@H](CCCNC(=N)N)NC(=O)[C@H](C)NC(=O)[C@H](Cc1ccc(O)cc1)NC(=O)[C@H](C)NC(=O)[C@@H](N)CCCCN)C(=O)NCC(=O)N[C@@H](CC(N)=O)C(=O)N[C@@H](CO)C(=O)N[C@@H](Cc1ccc(O)cc1)C(=O)N[C@@H](Cc1ccccc1)C(=O)N[C@@H](CCCCN)C(=O)O in this work.

Each compound was assayed against T1, Heat shock protein HSP 90-beta (assay: Inhibition of C-terminal HSP90beta (527 to 724 residues) (unknown origin) interaction with CYP40 at 1 to 25 uM measured after 30 mins by AlphaLISA assay). Details: dose 1-25 µM.
In the case of C[C@@H]1NC(=O)[C@H](CC(N)=O)NC(=O)[C@H](CCCCN)NC(=O)[C@H](Cc2ccccc2)NC(=O)[C@H](Cc2ccc(O)cc2)NC1=O (cyclo(AYFKN)), the inhibition is reported as “Active”. With NCCCC[C@@H]1NC(=O)[C@H](Cc2ccccc2)NC(=O)[C@H](Cc2ccc(O)cc2)NC(=O)[C@@H](CO)NC(=O)[C@H](CC(N)=O)NC1=O (cyclo(FKN[dS]Y)) the inhibition was “inactive”. For NCCCC[C@@H]1NC(=O)[C@H](Cc2ccccc2)NC(=O)[C@H](Cc2ccc(O)cc2)NC(=O)[C@H](CO)NC(=O)[C@@H](CC(N)=O)NC1=O (cyclo(FK[dN]SY)), the inhibition was “inactive”. In the case of NCCCC[C@@H]1NC(=O)[C@@H](Cc2ccccc2)NC(=O)[C@H](Cc2ccc(O)cc2)NC(=O)[C@H](CO)NC(=O)[C@H](CC(N)=O)NC1=O (cyclo(KNSY[dF])), the inhibition is reported as “inactive”. With CC(C)C[C@@H]1NC(=O)[C@H](CCCCN)NC(=O)[C@H](Cc2ccccc2)NC(=O)[C@H](Cc2ccc(O)cc2)NC(=O)[C@H](CO)NC1=O (cyclo(FKLSY)) the inhibition was “inactive”. For C[C@H]1NC(=O)[C@H](CCCCN)NC(=O)[C@H](Cc2ccccc2)NC(=O)[C@H](Cc2ccc(O)cc2)NC(=O)[C@H](CO)NC1=O, the inhibition was “inactive”. NCCCC[C@@H]1NC(=O)[C@H](Cc2ccccc2)NC(=O)[C@H](Cc2ccc(O)cc2)NC(=O)[C@H](CO)NC(=O)[C@H](CC(=O)O)NC1=O (cyclo(DSYFK)) was tested, and the inhibition was “inactive”. NCCCC[C@@H]1NC(=O)[C@H](Cc2ccccc2)NC(=O)[C@H](Cc2ccc(O)cc2)NC(=O)[C@H](CO)NC(=O)[C@H](Cc2ccccc2)NC1=O (cyclo(FKFSY)) was tested, and the inhibition was “Active”.
